The values that follow come from ChEMBL document CHEMBL4665901, “Novel CDK2 Inhibitors for Treating Cancer” (ACS Med Chem Lett, 2020).

Usually Ki stands for a dissociation constant, usually derived from enzyme kinetics or from competition with a known ligand.

The target in the assay is Cyclin-dependent kinase 2/cyclin E1 (Homo sapiens, UniProt P24941). Kind of assay: Inhibition of recombinant full length wild-type CDK2/Cyclin E1 (unknown origin) expressed in baculovirus expression system assessed as […] using 5-FAM-QSPKKG-CONH2 peptide as substrate preincubated with enzyme for 15 mins followed by further incubation with ATP for 45 mins by fluorescence-based microfluidic mobility shift assay.
`COc1ccc(CC(=O)Nc2cc([C@@H]3CC[C@H](OC(=O)N4CCC4(C)C)C3)[nH]n2)cn1`: the Ki stood at 0.12 nM.
With `Cc1ncc(CC(=O)Nc2cc([C@H]3CC[C@@H](OC(=O)N4C[C@@H](C#N)[C@@H]4C)C3)[nH]n2)s1` (single isomer, unassigned), the Ki was 0.15 nM.
The result for `COc1ccc(CC(=O)Nc2cc([C@H]3CC[C@@H](OC(=O)N4C[C@@H](C#N)[C@@H]4C)C3)[nH]n2)cn1` (single isomer, unassigned) reads 0.17 nM; that for `CCC(CO)CNC(=O)O[C@@H]1CC[C@H](c2cc(NC(=O)Cc3ccc(OC)nc3)n[nH]2)C1` (single isomer, unassigned), 0.77 nM.
